Measured values from US7226730B1, “Transgenic animals and cell lines for screening drugs effective for the treatment or prevention of Alzheimer's Disease” (The General Hospital Corporation, priority 1997, dated 2007).

Tested on: CYZ neuronal cells stably transfected with AD7c-NTP
Test: Crystal Violet viability assay in IPTG-induced AD7c-NTP expressing neuronal cells
Settings: for effect on cell death (percent change in viability, induced over uninduced) / effect on nitric oxide synthase toxicity attributable to AD7c-NTP expression: CYZ cells induced to express AD7c-NTP, FIG. 12; for cell viability under oxidative stress toxins: LacB and LacF cells, 3 mM IPTG 24 or 48 hrs, toxin 6 or 24 hrs, vs LacA-control, FIGS. 10A and 10B
Description: AD7c-NTP was cloned into a Lac-Switch expression vector (Stratgene), and CYZ neuronal cells were stably transformed with the construct. Several cell lines were selected that expressed AD7c-NTP at various levels, Lac A-Lac F, after induction of protein expression with IPTG.
Briefly, 10^4 cells/well were seeded into 96-well plates, and were induced to express AD7c-NTP for a period of 6–18 hrs; additionally, in some experiments, cells were exposed to toxins or protective agents for a similar period of time. At the end the treatment period, cells were fixed, permeabilized and immunostained with the appropriate antibody following the ABS procedure. Quantitation was done by incubating cells with a soluble chromagen, stopping the reaction with 2M H2SO4 and determining chromagen absorbance in an automated ELISA reading machine.
For Experiments determining cell viability, after culture and treatment as for the MICE assay, culture media was replaced with a Crystal Violet/PBS/formalin solution. After staining, cells were rinsed thoroughly and lysed with a PBS/1% SDS solution, and absorbance was determined with an automated ELSA reader. Results were graphed as percent viability.

OO [Hydrogen peroxide]
effect on cell death (percent change in viability, induced over uninduced): exacerbate cell death | cell viability under oxidative stress toxins: increased hypersensitivity

COC(=O)[C@@H](N)CCCNC(=N)N[N+](=O)[O-] [L-NAME]
effect on nitric oxide synthase toxicity attributable to AD7c-NTP expression: inhibit or reduce

N=C(N)NCCC[C@H](N)C(=O)O [L-arginine]
effect on nitric oxide synthase toxicity attributable to AD7c-NTP expression: inhibit or reduce

CCN(CC)C(=S)S [diethyldithiocarbamic acid]
effect on cell death (percent change in viability, induced over uninduced): exacerbate cell death | cell viability under oxidative stress toxins: increased hypersensitivity
